Patent publication US20250032490A1, “THERAPEUTIC REGIMENS FOR TREATMENT OF PAROXYSMAL NOCTURNAL HEMOGLOBINURIA” (Achillion Pharmaceuticals, Inc., priority 2017, published 2025)

Columns and labels:
PNH erythrocytes = experiment: CAP-mediated hemolysis assay with PNH erythrocytes (subject A); type: cell-based, human; details: for Inhibition (%) of CAP activity: Compound 1 0 μM
Protocol: Complement-preserved normal human serum (NHS) from an individual donor of ABO blood group type AB (NHS-AB) was purchase from BioreclamationIVT (Westbury, NY). Gelatin veronal buffer (GVB), pH 7.3, without Ca^++ and Mg^++ (GVB^0) and 100 mM MgCl2 +100 mM EGTA (MgEGTA) were obtained from Complement Technology Inc. (Tyler, TX).
GVB^0·MgEGTA was prepared by mixing GVB^0 and 100 mM MgEGTA in a 9:1 ratio. PNH erythrocytes were used within five days of blood collection; before assay cells were collected by centrifugation at 800×g and 4° C. for 3 minutes and resuspended in fresh cold GVB^0·MgEGTA to a density of 5×10^8 cells/mL.
50 μL of NHS-AB was added to each well. The plates were mixed and incubated at room temperature for 5 minutes. 24 μL of this NHS-AB with compound was then transferred to duplicate wells of V-bottom microtiter plates each containing 76 μL GVB0·MgEGTA. 20 μL PNH erythrocytes was then added to each well and the plates were sealed, mixed, and incubated at 37° C. for 30 minutes with an added shaking for 15 minutes. […] Following incubation, PNH cells were removed by centrifugation at 800×g and 4° C. for 3 minutes, 100 μL supernatant per well was transferred to flat-bottom clear microtiter plates, and A405 of the supernatant was measured in a Molecular Devices Spectramax Plus plate reader.
Combinatorial interactions were analyzed via two methods.
Inhibition was analyzed by the method of Prichard and Shipman (Prichard, M. N. and C. Shipman, Jr. A Three-Dimensional Model to Analyze Drug-Drug Interactions. Antiviral Research 1990, 14:181-205) Three-dimensional surface graphs of each experiment were generated and analyzed using an Excel spreadsheet program adapted from the MacSynergy II spreadsheet (University of Alabama, Birmingham, AL). The X-axis and Y-axis of each surface graph represent the concentrations of the two test compounds, and the Z-axis represents the difference between measured inhibition and a theoretically determined additive inhibition. For an additive relationship, the surface graph resembles a horizontal plane at Z=0, whereas positive surface peaks indicate greater inhibition than expected and therefore synergy, and negative surface peaks indicate less inhibition than expected and therefore antagonism.
Synergy and antagonism volumes were calculated separately as the summed volumes of peaks respectively above and below the Z=0 plane. Volumes were determined using 95% confidence limits to assure significance.
Inhibition was analyzed by the method of Chou and Talalay (Chou, T.-C. and P. Talalay. Analysis of Combined Drug Effects: A New Look at a Very Old Problem. Trends Pharmacol. Sci. 1983, 4:450-454; Chou, T. C. Theoretical basis, experimental design, and computerized simulation of synergism and antagonism in drug combination studies. Pharmacological Reviews 2006, 58:621-681). Analysis using the median-effect equation of Chou and Talalay was performed with CompuSyn software (ComboSyn, Inc, Paramus, NJ). […] Combination index (CI) values were determined at inhibition values of 50%, 75%, and 90%.

[1] = system: C3 fragment deposition on rabbit erythrocytes; experiment: C3 fragment deposition on rabbit erythrocytes (flow cytometry); type: cell-based; details: 20% C5-depleted normal human serum; read-out: IC50, inhibition of C3 fragment deposition on rabbit erythrocytes
Protocol: Rabbit erythrocytes, C5-depleted normal human serum (C5-Dpl NHS), gelatin veronal buffer (GVB) without Ca^++ and Mg (GVB^0), 100 mM MgCl2+100 mM EGTA (MgEGTA) were obtained from Complement Technology Inc. (Tyler, TX). GVB^0·MgEGTA was prepared by mixing GVB^0 and 100 mM MgEGTA in a 9:1 ratio. FITC-conjugated anti-C3c antibody (cat#ab4212) and Alexa Fluor® 647-conjugated anti human CD59 antibody (cat#: ab187769) were purchased from Abcam (Cambridge, MA).
Reactions were incubated at 37° C. for 15 minutes, the reactions were quenched by addition of EDTA at a final concentration of 20 mM. Cells were stained with a FITC-conjugated anti-C3c antibody at a dilution of 1:200 and C3 fragment deposition on the surface of rabbit erythrocytes was assessed by flow cytometry with BD Accuri C6 cytometer (BD Biosciences, San Jose, CA). Forward and side scatter parameters were used to gate intact erythrocytes. Controls included cells labeled with FITC-conjugated antibody isotype control. IC50 values from each experiment were determined by curve-fitting of experimental data (the % C3 fragment-positive cells at increasing concentrations of inhibitor) to the four-parameter sigmoidal dose-response equation using non-linear regression analysis (Prism Software, GraphPad, La Jolla, CA).

[2] = system: C3 fragment deposition on artificial PNH cells; experiment: C3 fragment deposition on artificial PNH cells (flow cytometry); type: cell-based; details: 32% acidified C5-depleted normal human serum; read-out: IC50, inhibition of C3 fragment deposition on artificial PNH cells
Protocol: C5-depleted normal human serum (C5-Dpl NHS), gelatin veronal buffer (GVB) without Ca^++ and Mg^++ (GVB^0), 100 mM MgCl2+100 mM EGTA (MgEGTA) were obtained from Complement Technology Inc. (Tyler, TX). GVB^0·MgEGTA was prepared by mixing GVB^0 and 100 mM MgEGTA in a 9:1 ratio. FITC-conjugated anti-C3c antibody (cat #ab4212) and Alexa Fluor® 647-conjugated anti human CD59 antibody (cat #:ab187769) were purchased from Abcam (Cambridge, MA). […] Ferrone, and F. Mercuriali, The Action of Two Sulfhydryl Compounds on Normal Human Red Cells. Relationship to Red Cells of Paroxysmal Nocturnal Hemoglobinuria. Blood, 1965. 25: p. 502-10). After AET treatment, artificial PNH erythrocytes were centrifuged, supernatant was aspirated and cells were thoroughly washed with phosphate buffered saline (PBS) 3 times followed by washing with GVB^0 buffer ([…]) for additional 3 times. […] C3 fragment deposition on the surface of the erythrocytes was assessed by flow cytometry with BD Accuri C6 cytometer (BD Biosciences, San Jose, CA). […] IC50 values from each experiment were determined by curve-fitting of experimental data (the % C3 fragment-positive cells at increasing concentrations of inhibitor) to the four-parameter sigmoidal dose-response equation using non-linear regression analysis (Prism Software, GraphPad, La Jolla, CA).

| Molecule | Inhibition (%) of CAP activity (PNH erythrocytes; Experiment 2, Compstatin 0-300 μM) [%] | Inhibition (%) of CAP activity (PNH erythrocytes; Experiment #1, Compstatin 0-300 μM) [%] | inhibition at the high end of the test concentration ranges (PNH erythrocytes; single agent, PNH erythrocytes) | IC50 [1] [nM] | IC50 [2] [nM] | Inhibition (%) of CAP activity (PNH erythrocytes; Experiment 2, Eculizumab 0-400 μg/mL) [%] | Inhibition (%) of CAP activity (PNH erythrocytes; Experiment #1, Eculizumab 0-400 μg/mL) [%] |
| --- | --- | --- | --- | --- | --- | --- | --- |
| CC[C@H](C)[C@H](N)C(=O)N[C@H]1CSSC[C@@H](C(=O)N[C@H](C(N)=O)[C@@H](C)O)NC(=O)[C@H](CCCN=C(N)N)NC(=O)[C@H](Cc2cnc[nH]2)NC(=O)[C@H](Cc2cnc[nH]2)NC(=O)CNC(=O)[C@H](Cc2c[nH]c3ccccc23)NC(=O)[C@H](CC(=O)O)NC(=O)[C@H](CCC(N)=O)NC(=O)[C@H](C(C)C)NC(=O)[C@H](C(C)C)NC1=O [Compstatin, reference compound] | 0 | 0 | complete inhibition | 1400 | 2200 | – | – |
| Eculizumab: monoclonal antibody complement inhibitor of the terminal component C5; only approved therapy for PNH (antibody, chains of the INN, looked up) heavy: QVQLVQSGAEVKKPGASVKVSCKASGYIFSNYWIQWVRQAPGQGLEWMGEILPGSGSTEYTENFKDRVTMTRDTSTSTVYMELSSLRSEDTAVYYCARYFFGSSPNWYFDVWGQGTLVTVSSASTKGPSVFPLAPCSRSTSESTAALGCLVKDYFPEPVTVSWNSGALTSGVHTFPAVLQSSGLYSLSSVVTVPSSNFGTQTYTCNVDHKPSNTKVDKTVERKCCVECPPCPAPPVAGPSVFLFPPKPKDTLMISRTPEVTCVVVDVSQEDPEVQFNWYVDGVEVHNAKTKPREEQFNSTYRVVSVLTVLHQDWLNGKEYKCKVSNKGLPSSIEKTISKAKGQPREPQVYTLPPSQEEMTKNQVSLTCLVKGFYPSDIAVEWESNGQPENNYKTTPPVLDSDGSFFLYSRLTVDKSRWQEGNVFSCSVMHEALHNHYTQKSLSLSLG light: DIQMTQSPSSLSASVGDRVTITCGASENIYGALNWYQQKPGKAPKLLIYGATNLADGVPSRFSGSGSGTDFTLTISSLQPEDFATYYCQNVLNTPLTFGQGTKVEIKRTVAAPSVFIFPPSDEQLKSGTASVVCLLNNFYPREAKVQWKVDNALQSGNSQESVTEQDSKDSTYSLSSTLTLSKADYEKHKVYACEVTHQGLSSPVTKSFNRGEC | – | – | – | – | – | 0 | 0 |
